# Data: patent US6339082B1, “Tricyclic compounds, preparation method and said method intermediates, application as medicines and pharmaceutical compositions containing same” (Aventis Pharma S.A., priority 1997, dated 2002)
# pIC50: −log10 of the molar value.
# Target: human αvβ3 receptor (Homo sapiens, UniProt P05106+P06756)
# Test: Bond displacement Vitronectin/Vitronectin Receptor (αvβ3), binding competition test Vn/VR
# Details: human vitronectin coated plates, 3 hours at ambient temperature
# Method: 1—Study by the Products of the Invention of the Bond Displacement: Vitronectin/Vitronectin Receptor (αvβ3) 96-well MaxiSorp plates are coated overnight at 4° C., with 100 μl of human Vitronectin (cf Yatohgo et al. Cell., Structure and fraction 13: 281-292 (1988)) at 2 μg/ml, (Dilution in coating buffer).
# The next day, the wells are emptied and the ligands (Vitronectin) are then fixed (see fixation buffer) for 1 hour at ambient temperature under gentle agitation.
# The wells are washed six times (see washing buffer), then the following are added per well and in this order:
# 40 μl of incubation buffer, 10 μl of the dilution of the product to be tested, (the products are diluted in a 50/50 mixture of DMSO—H2O) 50 μl of human αvβ3 receptor (cf Pytela et al. Methods Enzymol (1987)144:475) (dilution in incubation buffer, adapted according to the batch of receptor and according to the ligand).
# The ligand, the human αvβ3 receptor and the products to be studied are incubated for 3 hours at ambient temperature under gentle agitation.
# The wells are again washed six times, then incubated for 2 hours at ambient temperature under gentle agitation, in the presence of 100 μl of 4B12-HRP antibody, anti-receptor coupled to a peroxidase (the 4B12-HRP antibody is diluted in incubation buffer. The dilution is adapted according to the batch of receptor).
# The wells are then washed six times before measurement of ligand-receptor bond is carried out using a peroxidase developer kit (TMB Microwell Peroxidase Substrate System Kirkegaard: Ref. cat. 50-76-00).
# This kit contains a flask A of substrate (3,3′,5,5′-tetramethylbenzidine at 0.4 g/l) and a flask B (H2O2 at 0.02% in Citrate/Citric acid buffer). Extemporaneously, one volume of A is mixture with one volume of B, then the reaction mixture is distributed at the rate of 100 μl/well. The enzymatic reaction develops in 12′ for Vitronectin/αvβ3, then its development is stopped by the addition of 100 μl of 1M phosphoric acid.
# The optical density is measured at 450 nm. […]
# coating buffer: 0.05 M Carbonate, NaOH pH 9.6 fixation buffer: PBS containing 0.5% of BSA (pH 7.4) washing buffer: PBS containing 0.05% of Tween 20 (pH 7.4)
# Expression of the results:
# The following curve is plotted: the percentage of bond of human vitronectin as a function of the logarithm of the concentration of each product tested.
# For each product the IC50 is determined according to the following formula:
# BO=Maximum bond in the absence of any product Bmin=Minimum bond in the presence of the highest concentration of product.
row,pIC50,SMILES
1,7.80,"COc1c(C(=O)NCC(NC(=O)OCc2ccccc2)C(=O)O)cc2c(c1OC)C1=C(CCC1)C(=NNC1=NCCN1)CC2 (racemic) [EX. 1, 3-[[[4-[(4,5-dihydro-1H-imidazol-2-yl)hydrazono]-9,10-dimethoxy-1,2,3,4,5,6-hexahydro-8-benz[e]azulenyl]-carbonyl]amino]—N-[(phenylmethoxy)carbonyl]-DL-alanine]"
2,7.72,"COc1c(C(=O)NCC(NC(=O)OCc2ccccc2)C(=O)O)cc2c(c1OC)C1=C(CCC1)C(=NNC1=NCCCN1)CC2 (racemic) [EX. 2, 3-[[[9,10-dimethoxy-1,2,3,4,5,6-hexahydro-4-[(1,4,5,6-tetrahydropyrimidin-2-yl)]-hydrazono]-8-benz[e]azulenyl]carbonyl]amino]-N-[(phenylmethoxy)carbonyl]-DL-alanine]"
3,7.00,"O=C(O)CC(NC(=O)c1ccc2c(c1)CCC(=NNC1=NCCN1)C1=C2CCC1)c1cccnc1 (stereo not drawn) [EX. 3, beta-[[[4-[(4,5-dihydro-1H-imidazol-2-yl) hydrazono]-1,2,3,4,5,6-hexahydro-8-benz[e]azulenyl]-carbonyl]-amino]-3-pyridine-3-yl-propanoic acid]"
4,7.21,O=C(O)CC(NC(=O)c1ccc2c(c1)CCC(=NNC1=NCCN1)C1=C2CCC1)c1ccc2c(c1)OCO2 (stereo not shown) [EX. 4]
